Consider six molecules from article PMC5814047, “Peptidic inhibitors of insulin-degrading enzyme with potential for dermatological applications discovered via phage display” (PLoS ONE, 2018).

Where “and” joins values, the source holds several entries; their conditions need not be identical. Equal entries are not always repeated. Where two headings read alike, the source gives them in different places. Bridge positions count the residues as written; N and C are the ends. Ends that are not written are not given here. Peptide text beside a SMILES is read from it.

The target in one series is T1, IDE (Homo sapiens, UniProt P14735).
T1 construct: made in house; host or cells: bacteria
T1 sequence (P14735 1-1019): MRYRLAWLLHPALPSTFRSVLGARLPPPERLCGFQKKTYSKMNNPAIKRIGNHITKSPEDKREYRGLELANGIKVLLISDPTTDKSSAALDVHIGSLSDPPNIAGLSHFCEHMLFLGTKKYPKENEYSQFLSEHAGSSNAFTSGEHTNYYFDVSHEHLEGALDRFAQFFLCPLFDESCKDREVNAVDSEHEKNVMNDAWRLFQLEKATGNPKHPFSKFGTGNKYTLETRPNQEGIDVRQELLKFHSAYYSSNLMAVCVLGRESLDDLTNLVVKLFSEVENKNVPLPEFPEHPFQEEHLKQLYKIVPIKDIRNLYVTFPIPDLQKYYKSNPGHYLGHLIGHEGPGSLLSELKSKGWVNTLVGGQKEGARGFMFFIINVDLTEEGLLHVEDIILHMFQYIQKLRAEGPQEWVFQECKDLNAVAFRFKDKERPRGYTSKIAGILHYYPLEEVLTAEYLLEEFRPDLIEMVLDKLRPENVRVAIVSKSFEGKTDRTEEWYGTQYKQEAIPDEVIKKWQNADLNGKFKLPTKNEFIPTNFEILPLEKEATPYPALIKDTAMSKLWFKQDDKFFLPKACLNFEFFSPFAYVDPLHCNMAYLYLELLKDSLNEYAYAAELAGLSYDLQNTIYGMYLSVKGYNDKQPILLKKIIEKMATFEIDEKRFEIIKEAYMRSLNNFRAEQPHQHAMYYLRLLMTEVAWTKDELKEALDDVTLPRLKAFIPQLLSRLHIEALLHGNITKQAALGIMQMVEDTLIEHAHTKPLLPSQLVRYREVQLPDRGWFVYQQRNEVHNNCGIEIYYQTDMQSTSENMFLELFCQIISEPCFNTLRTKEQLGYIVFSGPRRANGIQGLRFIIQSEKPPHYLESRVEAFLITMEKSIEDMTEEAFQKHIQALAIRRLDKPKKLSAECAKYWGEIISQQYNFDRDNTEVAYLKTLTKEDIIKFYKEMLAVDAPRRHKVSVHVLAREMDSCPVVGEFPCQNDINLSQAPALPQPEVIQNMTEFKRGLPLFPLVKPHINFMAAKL
The series is described as follows: Vulnerability of peptides to degradation by IDE: 0 vs 4 h pre-incubation, then FRET1 assay. It counts as biochemical. The conditions noted are these: for remaining activity at 0.12207 µM / remaining activity at 0.488281 µM / remaining activity at 1.95312 µM / remaining activity at 7.8125 µM / remaining activity at 31.25 µM / remaining activity at 125 µM / remaining activity at 500 µM: 4 h, relative to DMSO-only controls, read-out: Percent Activity (normalized initial velocity of FRET1 hydrolysis); for remaining activity at 0.12207 µM: Cmpd 0.12207 uM; for remaining activity at 0.488281 µM: Cmpd 0.488281 uM; for remaining activity at 1.95312 µM: Cmpd 1.95312 uM; for remaining activity at 7.8125 µM: Cmpd 7.8125 uM; for remaining activity at 31.25 µM: Cmpd 31.25 uM; for remaining activity at 125 µM: Cmpd 125 uM; for remaining activity at 500 µM: Cmpd 500 uM; for Ki: Cheng-Prusoff from IC50, FRET1 KM 10 uM, substrate 5 uM; for IC50: FRET1 assay. The method, boiled down: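 Recombinant human IDE (1 nM, bacterially purified) degrading FRET1 substrate Mca-peptide-Dnp (5 μM) in PBS with 0.05% BSA; peptides pre-incubated 0 or 4 h before assay. Fluorescence monitored as degradation read-out.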

The subject of the next series is cultured skin cells. The experiment in a line: Toxicity in cell culture experiments. Type of series: cell-based. The text has this: Although a variety of potent and selective IDE inhibitors have been developed, current inhibitors are difficult to synthesize, expensive to generate and/or contain chemical moieties or constituents with established or undetermined potential for toxicity. Due to these and other considerations, existing IDE inhibitors are poorly suited for topical applications. To overcome these limitations, in the present study we aimed to develop peptidic inhibitors of IDE suitable for use in wound healing or cosmetic applications. […] To that end, we used phage display technology to select for a range of peptides that bind to IDE with strong affinity, which were then screened for resistance to degradation by IDE.

The subject of a further series is 15 different proteases. The series is described as follows: Selectivity against 15 different proteases (S4 Fig). The following applies: P12-3A 100 μM. It counts as biochemical. How it is done: Taken together with the potency of all peptides against insulin (Table 1), we concluded that P12-3A represented the best inhibitor for further studies, and a highly purified, deliberately cyclized version (Fig 3A) was synthesized. […] Based on its potency, stability and selectivity for IDE, P12-3A was selected for use in downstream assays.
IDE activity was quantified by monitoring the degradation of Mca-[…](Dnp) (FRET1, 5 μM), fluoresceinated and biotinylated amyloid ß-protein (FAßB; 500 nM) or recombinant human insulin (50 nM) in PBS supplemented with 0.05% BSA. FRET1 degradation was measured by changes in fluorescence (λex = 340 nm, λem = 420 nm); FAßB degradation was monitored by fluorescence polarization (λex = 488 nm, λem = 525 nm), as described; and insulin degradation was quantified by ELISA. In vitro activity assays incorporated recombinant human IDE (1 nM) purified from bacteria. For quantitation of insulin degradation in primary murine skin fibroblasts, cells (1 x 10^5/well) were plated in 96-well plates and maintained in DMEM supplemented with 10% fetal bovine serum (FBS), 2mM glutamine, penicillin and streptomycin. After addition of insulin (10 nM or 100 nM), samples of conditioned medium were removed daily and quickly frozen, then insulin levels were quantified in parallel by ELISA according to manufacturer’s recommendations (Crystal Chem, Downers Grove, IL, USA). […]

[1] abbreviates: 4-hr incubation, individual runs.
The mark [2] stands for this setting: 0-hr incubation (immediately after combining enzyme and peptide), individual runs, read-out: IC50s.
The mark [3] stands for this setting: 4-hr incubation, individual replicates, read-out: IC50s.
The mark [4] stands for this setting: 4-hr incubation, mean of 2 replicates, read-out: IC50s, Mean.

On to `CC(C)C[C@H](NC(=O)[C@H](CO)NC(=O)[C@@H](N)CCC(N)=O)C(=O)N1CCC[C@H]1C(=O)N[C@@H](Cc1c[nH]c2ccccc12)C(=O)N[C@H]1CSSC[C@@H](C(=O)N[C@H](C(=O)N[C@H](C(N)=O)[C@@H](C)O)C(C)C)NC(=O)[C@H](Cc2c[nH]cn2)NC(=O)[C@@H]2CCCN2C(=O)[C@H](Cc2ccc(O)cc2)NC1=O` [P12-3A] (H-QSLPWCYPHCVT-NH2; disulfide 6-10 (inferred)), for which, at IDE (setting [1]), the remaining activity at 0.12207 µM came to 101%, the remaining activity at 0.488281 µM was 96.2%, the remaining activity at 1.95312 µM stood at 95.5% and the remaining activity at 7.8125 µM worked out at 93.1%. On IDE (setting [1]), the remaining activity at 31.25 µM is 87.4%, the remaining activity at 125 µM turned out to be 7.45% and the remaining activity at 500 µM was 0.698%. In the series on cultured skin cells, the “toxicity in cell culture experiments” value is given as “no evidence of toxicity”. Besides, in the series on 15 different proteases, the “inhibition against 15 different proteases” value is on record as “essentially no inhibition”.
Consider `CC(C)C[C@H](NC(=O)[C@H](CO)NC(=O)[C@@H](N)CCC(N)=O)C(=O)N1CCC[C@H]1C(=O)N[C@@H](Cc1c[nH]c2ccccc12)C(=O)N[C@H]1CSSC[C@@H](C(=O)N[C@H](C(=O)N[C@H](C(=O)O)[C@@H](C)O)C(C)C)NC(=O)[C@H](Cc2c[nH]cn2)NC(=O)[C@@H]2CCCN2C(=O)[C@H](Cc2ccc(O)cc2)NC1=O` [P12-3] (H-QSLPWCYPHCVT-OH; disulfide 6-10 (inferred)), for which, on IDE (setting [1]), the remaining activity at 0.12207 µM came out at 106%, the remaining activity at 0.488281 µM was found to be 99.5%, the remaining activity at 1.95312 µM worked out at 95.9% and the remaining activity at 7.8125 µM worked out at 104%. Besides, on IDE (setting [1]), the remaining activity at 31.25 µM turned out to be 70.9%, the remaining activity at 125 µM was 8.98% and the remaining activity at 500 µM stood at 1.55%.
Consider QSLPWCYP-NH2 [P12-3B], for which, on IDE (4-hr incubation), affinity was put at a Ki of 30.6 µM. Also, on IDE (setting [1]), the remaining activity at 0.12207 µM was 101%, the remaining activity at 0.488281 µM worked out at 96.9%, the remaining activity at 1.95312 µM was 101% and the remaining activity at 7.8125 µM worked out at 97%. Further, at IDE (setting [1]), the remaining activity at 31.25 µM worked out at 80.9%, the remaining activity at 125 µM stood at 60.2% and the remaining activity at 500 µM worked out at 11.2%. Further, the IC50 on IDE (setting [2]) was determined as 119 µM. Besides, the IC50 at IDE (0-hr incubation, mean of runs, read-out: IC50s, Mean) was found to be 59.2 µM. Moreover, the IC50 at IDE (setting [3]) is 45.1 µM and 46.8 µM. The IC50 on IDE (setting [4]) is 45.9 µM.
VHWDFRQWWQPS [P12-1]: at IDE (4-hr incubation), the affinity, expressed as Ki, was 105 µM. Also, at IDE (setting [1]), the remaining activity at 0.12207 µM stood at 97.5%, the remaining activity at 0.488281 µM is 104%, the remaining activity at 1.95312 µM amounted to 99% and the remaining activity at 7.8125 µM worked out at 73.2%. At IDE (setting [1]), the remaining activity at 31.25 µM was 42.7%, the remaining activity at 125 µM turned out to be 10% and the remaining activity at 500 µM was 0.247%. Besides, the IC50 at IDE (setting [3]) is 154 µM and 160 µM. At IDE (setting [4]), the IC50 came to 157 µM.
As for VHWDFRQWWQPS-NH2 [P12-1A], affinity on IDE (4-hr incubation) was put at a Ki of 62.2 µM. On IDE (setting [1]), the remaining activity at 0.12207 µM turned out to be 79.1%, the remaining activity at 0.488281 µM was found to be 75%, the remaining activity at 1.95312 µM amounted to 59.1% and the remaining activity at 7.8125 µM came to 50.1%. In addition, at IDE (setting [1]), the remaining activity at 31.25 µM came to 33.7%, the remaining activity at 125 µM came out at 12.7% and the remaining activity at 500 µM stood at 21.4%. At IDE (setting [2]), the IC50 worked out at 8.43 µM. In addition, the IC50 on IDE (setting [3]) is 96.5 µM and 90.2 µM. For the same molecule, at IDE (setting [4]), the IC50 is 93.3 µM.
As for WSPISGKFFQRF [P12-4], at IDE (4-hr incubation), the Ki (usually a dissociation constant, usually derived from enzyme kinetics or from competition with a known ligand) is 259 µM. Moreover, on IDE (setting [1]), the remaining activity at 0.12207 µM came to 89.9%, the remaining activity at 0.488281 µM was 96.1%, the remaining activity at 1.95312 µM was found to be 86.6% and the remaining activity at 7.8125 µM turned out to be 80.4%. At IDE (setting [1]), the remaining activity at 31.25 µM was determined as 84.9%, the remaining activity at 125 µM worked out at 75.6% and the remaining activity at 500 µM worked out at 30.5%. The IC50 on IDE (setting [3]) was 402 µM and 377 µM. Also, the IC50 on IDE (setting [4]) was 389 µM.
